The target in assay [1] is 3-phosphoinositide-dependent protein kinase 1 (Homo sapiens) (UniProt O15530).
Assay [2] addresses Misshapen-like kinase 1 (Homo sapiens) (UniProt Q8N4C8).
In assay [3] the target is NT-3 growth factor receptor (Homo sapiens) (UniProt Q16288).
For assay [4], the target named is RAC-beta serine/threonine-protein kinase (Homo sapiens) (UniProt P31751).
For assay [5], the target named is T1, Muscarinic acetylcholine receptor M1 (Homo sapiens) (UniProt P11229).
T1 sequence (whole entry): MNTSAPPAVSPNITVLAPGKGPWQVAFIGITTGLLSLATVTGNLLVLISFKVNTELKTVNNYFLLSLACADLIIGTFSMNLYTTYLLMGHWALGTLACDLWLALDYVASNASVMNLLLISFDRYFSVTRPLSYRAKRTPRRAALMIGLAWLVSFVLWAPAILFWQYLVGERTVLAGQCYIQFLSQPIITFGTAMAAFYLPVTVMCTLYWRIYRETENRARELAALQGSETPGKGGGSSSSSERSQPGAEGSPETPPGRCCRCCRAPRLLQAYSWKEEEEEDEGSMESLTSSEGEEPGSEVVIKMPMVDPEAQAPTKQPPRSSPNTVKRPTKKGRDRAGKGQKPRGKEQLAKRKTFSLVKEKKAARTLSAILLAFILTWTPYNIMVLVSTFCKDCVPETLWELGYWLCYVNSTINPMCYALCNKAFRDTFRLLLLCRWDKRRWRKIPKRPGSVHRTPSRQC
The following applies: Compound concentration 10.0 uM.

Assay [6] concerns the target Fibroblast growth factor receptor 4 (Homo sapiens) (UniProt P22455).
For assay [7], the target named is Serine/threonine-protein kinase ULK1 (Homo sapiens) (UniProt O75385).
Chain of Serine/threonine-protein kinase ULK1 (Homo sapiens) (O75385 whole entry): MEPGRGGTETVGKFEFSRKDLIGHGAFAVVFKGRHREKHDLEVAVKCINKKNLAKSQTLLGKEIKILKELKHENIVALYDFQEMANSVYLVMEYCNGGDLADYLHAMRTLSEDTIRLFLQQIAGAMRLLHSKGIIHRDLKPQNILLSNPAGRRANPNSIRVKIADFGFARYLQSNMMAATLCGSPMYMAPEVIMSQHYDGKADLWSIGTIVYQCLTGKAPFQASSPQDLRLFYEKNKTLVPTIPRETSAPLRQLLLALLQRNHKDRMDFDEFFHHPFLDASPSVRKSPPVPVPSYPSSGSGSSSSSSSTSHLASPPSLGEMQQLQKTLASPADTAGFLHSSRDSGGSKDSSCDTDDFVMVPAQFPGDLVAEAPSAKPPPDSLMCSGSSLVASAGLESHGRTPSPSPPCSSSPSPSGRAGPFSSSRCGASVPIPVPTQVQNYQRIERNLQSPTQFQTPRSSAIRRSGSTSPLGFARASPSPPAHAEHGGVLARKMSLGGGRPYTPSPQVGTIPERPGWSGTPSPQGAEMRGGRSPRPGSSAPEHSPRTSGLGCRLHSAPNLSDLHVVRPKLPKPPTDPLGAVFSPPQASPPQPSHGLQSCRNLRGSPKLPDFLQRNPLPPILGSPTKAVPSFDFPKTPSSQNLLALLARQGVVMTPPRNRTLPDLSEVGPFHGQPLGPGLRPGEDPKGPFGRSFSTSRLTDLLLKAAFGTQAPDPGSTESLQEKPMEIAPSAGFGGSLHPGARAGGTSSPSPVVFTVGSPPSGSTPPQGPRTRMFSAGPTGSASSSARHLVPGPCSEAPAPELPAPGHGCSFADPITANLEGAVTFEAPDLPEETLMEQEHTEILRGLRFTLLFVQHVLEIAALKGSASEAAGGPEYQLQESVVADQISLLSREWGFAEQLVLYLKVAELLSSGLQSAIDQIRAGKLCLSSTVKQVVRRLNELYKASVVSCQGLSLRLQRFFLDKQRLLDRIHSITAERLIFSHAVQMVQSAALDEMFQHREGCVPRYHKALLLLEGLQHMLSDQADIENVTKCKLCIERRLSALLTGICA
Assay [8] has as its target Muscarinic acetylcholine receptor M3 (Homo sapiens) (UniProt P20309). The following applies: Compound concentration 10.0 uM.
For assay [9], the target named is Serine/threonine-protein kinase Chk2 (Homo sapiens) (UniProt O96017).
For assay [10], the target named is Serine/threonine-protein kinase WNK4 (Homo sapiens) (UniProt Q96J92).
Assay [11] has as its target Serine/threonine-protein kinase N1 (Homo sapiens) (UniProt Q16512).
Assay [12] concerns the target Serine/threonine-protein kinase N2 (Homo sapiens) (UniProt Q16513).
In assay [13] the test system is Serine/threonine-protein kinase B-raf (Homo sapiens), P15056 [V600E].
Assay [14] concerns the target Tyrosine-protein kinase HCK (Homo sapiens) (UniProt P08631).
The subject of assay [15] is Phosphatidylinositol 4,5-bisphosphate 3-kinase catalytic subunit alpha isoform (Homo sapiens), P42336 [E542K].
Assay [16] concerns the target Atypical kinase COQ8B, mitochondrial (Homo sapiens) (UniProt Q96D53).
Assay [17] concerns the target Mitogen-activated protein kinase 6 (Homo sapiens) (UniProt Q16659).
Assay [18] has as its target Dual specificity protein kinase CLK1 (Homo sapiens) (UniProt P49759).
Assay [19] has as its target T2, Beta-adrenergic receptor kinase 1 (Homo sapiens) (UniProt P25098).
T2 sequence (whole entry): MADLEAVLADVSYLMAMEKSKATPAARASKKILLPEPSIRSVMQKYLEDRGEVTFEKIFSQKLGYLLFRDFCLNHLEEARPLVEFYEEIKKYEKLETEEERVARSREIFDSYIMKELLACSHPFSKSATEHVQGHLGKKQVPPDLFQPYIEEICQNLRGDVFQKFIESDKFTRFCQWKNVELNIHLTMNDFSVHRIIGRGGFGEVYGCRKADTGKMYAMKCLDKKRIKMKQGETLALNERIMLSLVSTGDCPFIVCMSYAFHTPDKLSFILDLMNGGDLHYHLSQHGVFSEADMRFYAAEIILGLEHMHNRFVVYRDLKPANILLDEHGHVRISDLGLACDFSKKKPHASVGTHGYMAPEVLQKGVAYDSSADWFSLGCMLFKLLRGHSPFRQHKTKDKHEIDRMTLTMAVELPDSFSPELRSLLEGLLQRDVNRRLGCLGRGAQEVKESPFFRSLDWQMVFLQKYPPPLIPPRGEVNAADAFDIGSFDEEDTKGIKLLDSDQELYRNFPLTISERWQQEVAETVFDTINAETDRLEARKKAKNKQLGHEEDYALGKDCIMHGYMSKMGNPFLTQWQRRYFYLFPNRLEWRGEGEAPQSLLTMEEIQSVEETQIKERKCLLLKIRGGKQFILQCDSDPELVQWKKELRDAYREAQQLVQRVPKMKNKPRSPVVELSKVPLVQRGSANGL

The target of assay [20] is Vascular endothelial growth factor receptor 1 (Homo sapiens) (UniProt P17948).
Assay [21] concerns the target Atypical kinase COQ8A, mitochondrial (Homo sapiens) (UniProt Q8NI60).
The target of assay [22] is T3, Aurora kinase C (Homo sapiens) (UniProt Q9UQB9).
T3 sequence (whole entry): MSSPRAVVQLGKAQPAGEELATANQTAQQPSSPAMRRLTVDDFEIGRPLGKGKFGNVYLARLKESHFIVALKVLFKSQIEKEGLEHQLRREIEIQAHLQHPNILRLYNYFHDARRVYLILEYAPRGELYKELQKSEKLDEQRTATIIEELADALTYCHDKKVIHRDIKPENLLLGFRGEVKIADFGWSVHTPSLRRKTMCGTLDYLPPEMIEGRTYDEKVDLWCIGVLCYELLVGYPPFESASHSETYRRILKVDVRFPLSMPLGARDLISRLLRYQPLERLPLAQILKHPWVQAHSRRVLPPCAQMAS

Assay [23] deals with Mitogen-activated protein kinase 15 (Homo sapiens) (UniProt Q8TD08).
Chain of Mitogen-activated protein kinase 15 (Homo sapiens) (Q8TD08 whole entry): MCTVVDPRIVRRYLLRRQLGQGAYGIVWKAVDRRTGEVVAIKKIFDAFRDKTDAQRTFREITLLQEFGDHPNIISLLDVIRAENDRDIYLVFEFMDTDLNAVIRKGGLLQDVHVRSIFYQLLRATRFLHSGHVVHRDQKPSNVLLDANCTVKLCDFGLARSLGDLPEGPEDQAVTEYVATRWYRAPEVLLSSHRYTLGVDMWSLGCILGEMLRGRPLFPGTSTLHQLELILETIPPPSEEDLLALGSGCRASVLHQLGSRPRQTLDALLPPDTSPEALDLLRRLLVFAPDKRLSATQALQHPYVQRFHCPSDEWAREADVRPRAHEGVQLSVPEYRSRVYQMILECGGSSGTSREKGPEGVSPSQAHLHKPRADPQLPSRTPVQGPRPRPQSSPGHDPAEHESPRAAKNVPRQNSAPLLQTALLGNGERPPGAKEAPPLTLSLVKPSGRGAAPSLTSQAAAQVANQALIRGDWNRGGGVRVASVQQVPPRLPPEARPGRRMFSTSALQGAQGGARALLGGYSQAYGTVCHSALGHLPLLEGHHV
Assay [24] concerns the target Histamine H1 receptor (Homo sapiens) (UniProt P35367). To be noted: Compound concentration 10.0 uM.
The mark [25] stands for this setting: Compound concentration 1000.0 nM.
The mark [26] stands for this setting: Compound concentration 100.0 nM.

Each structure is given as a SMILES string.

Chain of Fibroblast growth factor receptor 4 (Homo sapiens) (P22455 22-802 limits assumed): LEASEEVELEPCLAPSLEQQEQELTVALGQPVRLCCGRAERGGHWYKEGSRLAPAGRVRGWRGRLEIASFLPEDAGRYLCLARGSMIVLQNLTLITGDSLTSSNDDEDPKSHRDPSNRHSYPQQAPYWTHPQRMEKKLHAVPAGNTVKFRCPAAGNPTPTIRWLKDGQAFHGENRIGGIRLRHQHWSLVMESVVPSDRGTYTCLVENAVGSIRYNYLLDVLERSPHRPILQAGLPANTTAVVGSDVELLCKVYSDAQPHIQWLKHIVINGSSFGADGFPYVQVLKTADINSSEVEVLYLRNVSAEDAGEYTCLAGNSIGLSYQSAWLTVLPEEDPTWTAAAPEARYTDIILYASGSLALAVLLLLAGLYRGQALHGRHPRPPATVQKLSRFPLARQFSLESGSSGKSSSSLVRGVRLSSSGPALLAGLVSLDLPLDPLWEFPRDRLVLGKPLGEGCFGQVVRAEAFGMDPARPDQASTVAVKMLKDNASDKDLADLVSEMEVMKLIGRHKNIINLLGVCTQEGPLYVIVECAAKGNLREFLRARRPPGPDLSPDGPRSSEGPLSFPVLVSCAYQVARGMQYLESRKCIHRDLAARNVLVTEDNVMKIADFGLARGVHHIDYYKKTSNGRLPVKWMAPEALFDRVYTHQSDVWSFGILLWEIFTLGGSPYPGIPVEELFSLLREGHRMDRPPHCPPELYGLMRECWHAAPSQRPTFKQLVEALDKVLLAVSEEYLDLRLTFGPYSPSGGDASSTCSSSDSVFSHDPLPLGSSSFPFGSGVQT
Chain of Atypical kinase COQ8B, mitochondrial (Homo sapiens) (Q96D53 whole entry): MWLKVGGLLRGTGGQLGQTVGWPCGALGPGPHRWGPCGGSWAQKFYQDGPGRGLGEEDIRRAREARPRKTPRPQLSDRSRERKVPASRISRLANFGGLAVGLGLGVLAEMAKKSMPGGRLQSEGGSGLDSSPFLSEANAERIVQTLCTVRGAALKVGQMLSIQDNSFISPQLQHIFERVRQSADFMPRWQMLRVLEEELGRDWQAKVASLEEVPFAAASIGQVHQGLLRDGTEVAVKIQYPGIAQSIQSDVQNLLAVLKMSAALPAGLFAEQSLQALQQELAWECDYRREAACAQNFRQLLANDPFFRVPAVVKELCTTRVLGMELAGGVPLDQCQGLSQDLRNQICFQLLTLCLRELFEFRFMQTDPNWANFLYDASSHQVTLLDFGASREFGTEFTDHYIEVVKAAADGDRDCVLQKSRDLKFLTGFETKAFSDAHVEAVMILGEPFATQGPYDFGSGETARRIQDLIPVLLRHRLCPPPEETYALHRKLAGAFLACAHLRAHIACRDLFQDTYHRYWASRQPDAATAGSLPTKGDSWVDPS
Chain of Serine/threonine-protein kinase N1 (Homo sapiens) (Q16512 2-942 limits assumed): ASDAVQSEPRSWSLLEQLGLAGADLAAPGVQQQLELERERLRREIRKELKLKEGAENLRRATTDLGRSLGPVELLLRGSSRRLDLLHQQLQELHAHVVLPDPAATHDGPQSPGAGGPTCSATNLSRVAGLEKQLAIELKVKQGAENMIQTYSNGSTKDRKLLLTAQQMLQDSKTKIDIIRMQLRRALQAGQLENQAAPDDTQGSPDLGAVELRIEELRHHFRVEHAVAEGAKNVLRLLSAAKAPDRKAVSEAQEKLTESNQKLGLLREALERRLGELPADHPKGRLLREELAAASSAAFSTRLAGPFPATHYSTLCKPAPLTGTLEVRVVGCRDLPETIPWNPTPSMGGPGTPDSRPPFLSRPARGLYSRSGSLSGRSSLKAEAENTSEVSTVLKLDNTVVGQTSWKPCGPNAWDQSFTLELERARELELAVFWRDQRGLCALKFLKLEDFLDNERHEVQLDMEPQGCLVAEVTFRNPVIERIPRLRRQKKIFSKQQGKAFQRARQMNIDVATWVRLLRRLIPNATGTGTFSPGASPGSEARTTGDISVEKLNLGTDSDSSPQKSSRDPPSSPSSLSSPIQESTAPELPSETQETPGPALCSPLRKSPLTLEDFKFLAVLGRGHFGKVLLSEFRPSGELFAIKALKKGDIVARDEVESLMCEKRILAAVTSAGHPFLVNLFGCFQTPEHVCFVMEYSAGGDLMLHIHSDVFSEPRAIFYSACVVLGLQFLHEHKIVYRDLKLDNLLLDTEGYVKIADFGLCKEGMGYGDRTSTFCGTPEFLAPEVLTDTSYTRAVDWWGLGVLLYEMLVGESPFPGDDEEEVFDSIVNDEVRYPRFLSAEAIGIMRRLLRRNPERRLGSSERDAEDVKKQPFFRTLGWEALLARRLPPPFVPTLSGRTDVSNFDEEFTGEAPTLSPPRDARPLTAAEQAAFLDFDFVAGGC
Chain of Serine/threonine-protein kinase N2 (Homo sapiens) (Q16513 whole entry, looked up): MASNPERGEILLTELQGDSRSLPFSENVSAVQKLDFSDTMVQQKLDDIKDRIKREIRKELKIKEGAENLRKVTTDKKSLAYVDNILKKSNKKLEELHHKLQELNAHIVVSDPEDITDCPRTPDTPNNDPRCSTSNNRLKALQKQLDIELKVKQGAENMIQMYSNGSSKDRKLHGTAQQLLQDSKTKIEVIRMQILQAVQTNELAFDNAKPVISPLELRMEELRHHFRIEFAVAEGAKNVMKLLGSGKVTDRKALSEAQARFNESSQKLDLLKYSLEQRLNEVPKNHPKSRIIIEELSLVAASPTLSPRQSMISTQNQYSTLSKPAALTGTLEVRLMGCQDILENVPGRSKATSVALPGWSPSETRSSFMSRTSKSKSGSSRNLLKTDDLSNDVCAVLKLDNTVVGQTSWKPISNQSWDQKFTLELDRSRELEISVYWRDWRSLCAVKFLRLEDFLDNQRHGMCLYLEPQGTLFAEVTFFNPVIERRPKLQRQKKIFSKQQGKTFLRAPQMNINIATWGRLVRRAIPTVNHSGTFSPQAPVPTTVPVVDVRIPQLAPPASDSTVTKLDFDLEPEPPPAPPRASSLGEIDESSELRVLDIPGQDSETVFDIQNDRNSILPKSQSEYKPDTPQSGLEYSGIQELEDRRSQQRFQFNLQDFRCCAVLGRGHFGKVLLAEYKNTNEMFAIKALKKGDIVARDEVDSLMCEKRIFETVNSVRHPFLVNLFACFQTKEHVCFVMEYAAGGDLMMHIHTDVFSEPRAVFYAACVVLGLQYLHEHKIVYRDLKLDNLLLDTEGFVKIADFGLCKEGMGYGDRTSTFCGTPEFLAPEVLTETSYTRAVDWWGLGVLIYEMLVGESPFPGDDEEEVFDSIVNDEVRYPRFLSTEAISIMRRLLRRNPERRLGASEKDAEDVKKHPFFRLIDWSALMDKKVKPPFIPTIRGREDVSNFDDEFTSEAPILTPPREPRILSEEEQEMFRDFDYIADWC

In general, inhibition refers to the drop in the measured response relative to a control, in per cent. In the case of `C[C@@H]1CN(c2cc(-c3nn(C)c4ccc(OC5(C)CC5)cc34)ncn2)C[C@H](C)O1` [MLi-2-NC], the residual activity in assay [1] (setting [25]) is 100%; in assay [2] (setting [25]), 66%; in assay [3] (setting [25]), 65%; in assay [4] (setting [25]), 89%; in assay [6] (setting [25]), 100%; in assay [7] (setting [25]), 76%. Moreover, the residual activity in assay [9] (setting [25]) was 97%; in [10] (setting [25]), 60%; in [11] (setting [25]), 100%; in assay [12] (setting [25]) it was 100%; in [13] (setting [25]) it was 91%; in [14] (setting [25]), 96%. The residual activity in assay [15] (setting [25]) is 32%; in assay [16] (setting [25]) it was 100%; in assay [17] (setting [25]) it was 97%; in [18] (setting [25]), 86%; in assay [19] (setting [25]), 68%; in assay [20] (setting [25]), 95%. Further, the residual activity is 100% in [21] (setting [25]), 100% in [22] (setting [25]) and 72% in assay [23] (setting [25]). For the same compound, the inhibition in [5] is -1.02%; in [8], 6.03%; in assay [24], 11.9%.
Take `C[C@@H]1CN(c2cc(-c3n[nH]c4ccc(OC5(C)CC5)cc34)ncn2)C[C@H](C)O1` [MLi-2]: the residual activity in assay [1] (setting [26]) is 78%; in [2] (setting [26]) it was 84%; in assay [3] (setting [26]), 86%; in assay [4] (setting [26]), 100%; in assay [6] (setting [26]), 100%; in assay [7] (setting [26]) it was 80%. Further, the residual activity was 68% in assay [9] (setting [26]); 94% in assay [10] (setting [26]); 91% in assay [11] (setting [26]); 89% in [12] (setting [26]); 89% in assay [13] (setting [26]); 84% in assay [14] (setting [26]). In addition, the residual activity is 81% in [15] (setting [26]); 72% in assay [16] (setting [26]); 91% in assay [17] (setting [26]); 86% in [18] (setting [26]); 86% in assay [19] (setting [26]); 100% in [20] (setting [26]). Moreover, the residual activity is 85% in assay [21] (setting [26]), 100% in assay [22] (setting [26]) and 81% in [23] (setting [26]). For the same compound, the inhibition in assay [5] was 3.04%; in assay [8], 7.93%; in assay [24], -6.46%.

(Values after ChEMBL document CHEMBL4507291 (2021).)
